Laboratory results taken from patent EP0011400A1, “An aminoglycosidic antibiotic salt” (priority 1978, dated 1980).
Counter-ions that a name gives are not always drawn.

How the values were obtained:
Male Hartley guinea pigs [1] = assay: Example 8: toxicity of tobramycin and bekanamycin salts on intramuscular injection (deaths, pinna reflex); assay type: in vivo; conditions: for Pinna Reflex Lost: * including dead cases; for Number died/ Number tested: guinea pigs, intramuscular
Procedure: The second group was injected with a solution of tobramycin sulfate in water for injection in an equal dose. […] After injection with the final dose, the pinna reflex of each subject guinea pig to a pure tone having a frequency of 15,000 Hz was determined. […] Both group were then subjected to determination of their pinna reflex to a 15,000^-Hz pure tone.

[2] = Solubility of the salt powder in water and organic solvents; assay type: physicochemical
Male Hartley guinea pigs [3] = assay: Example 6: toxicity of gentamicin salts on intramuscular injection for 14 days (deaths, pinna reflex, BUN, CRE); assay type: in vivo; conditions: 100 mg (as a free base)/kg/day; for CRE: creatine in sera; for CRE / BUN: 24 hours after the pinna reflex determination; for Number died/ Number tested: 14 consecutive days; for BUN: sera
Procedure: The amount of the test compounds administered was calculated on the basis of the free base (i.e., free gentamicin). […] The second group was injected with an equal dose of a solution of gentamicin sulfate in water for injection. […] After injection with the final dose, each group was subjected to a pure tone having a frequency of 20,000 Hz to determine the pinna reflex of the subject guinea pigs. Twenty-four hours after the determination, the levels of blood urea nitrogen (BUN) and creatine (CRE) in sera were measured.

Male Hartley guinea pigs [4] = assay: Example 11: pinna reflex after intramuscular injection of gentamicin salts for 21 days; conditions: 80 mg (as a free base)/kg/day, 20,000 Hz pure tone after final dose
Procedure: Male Hartley guinea pigs weighing 300 g on average were used as the test animals in three groups each consisting of 6 guinea pigs which were subjected to intramuscular injection of the following substances for 21 consecutive days. The first group was injected with a solution of the salt of gentamicin and D-glucaro-1,5-lactam in water for injection in a dose of 80 mg (as a free base)/kg/day. The second group was injected with a solution of gentamicin sulfate in water for injection in an equal dose. The third group was a control which was injected with distilled water.

[5] = pH of an aqueous solution of the salt; assay type: physicochemical
Male Hartley guinea pigs [6] = assay: Example 9: toxicity of kanamycin A salts on intramuscular injection for 14 days (deaths, pinna reflex, BUN); assay type: in vivo; conditions: 400 mg (as a free base)/kg/day, 14 consecutive days
Procedure: The second group was injected with a solution of kanamycin A sulfate in water for injection in an equal dose. The third group was injected with a solution of a mixture of kanamycin A sulfate and potassium salt of D-glucaro-1,5-lactam (in a molar ratio of […]) in water for injection in an eaual dose.

Male Hartley guinea pigs [7] = assay: Example 7: toxicity of dibekacin salts on intramuscular injection for 21 days (deaths, pinna reflex, BUN); assay type: in vivo; conditions: for Number of guinea pigs which lost pinna reflex 10days / Number of guinea pigs which lost pinna reflex 14days / Number of guinea pigs which lost pinna reflex 17days / Number of guinea pigs which lost pinna reflex 21days: 180 mg (as a free base)/kg/day intramuscular, 20,000 Hz pure tone; for Number of guinea pigs which lost pinna reflex 21days: * including dead cases; for Number died/ Number tested: guinea pigs, intramuscular, 21 consecutive days; for Number died/ Number tested / BUN: 180 mg (as a free base)/kg/day; for BUN: sera, 24 hours after final dose; for Number of guinea pigs which lost pinna reflex 21days / BUN: 21 days
Procedure: The second group was injected with an equal dose of a solution of dibekacin sulfate in water for injection. […] During the intramuscu]ar injection, the pinna reflex of each subject guinea pig to a pure tone having a frequency of 20,000 Hz was determined. Twenty-four hours after the injection with the final dose, the level of BUN in sera was measured.

[8] = system: Pseudomonas aeruginosa E-2; assay: Example 10: survival of mice infected intraperitoneally; assay type: in vivo; conditions: ICR-JCL mice, intramuscular; for Percentage Survival (%) Dosage 0.0625 mg: 0.0625 mg (as a free base)/mouse; for Percentage Survival (%) Dosage 0.0625 mg / Percentage Survival (%) Dosage 0.25 mg / Percentage Survival (%) Dosage 1 mg: one week after the injection; for Percentage Survival (%) Dosage 1 mg: 1 mg (as a free base)/mouse; for ED50: Pseudomonas aeruginosa, E2, im, 168 h, calculated by Ritchfield-Wilcoxon technique, the two values not significantly different
Procedure: The second group was injected with a solutio of dibekacin sulfate in sterile physiological saline solution in the above indicated doses. […] The percentage survival of each group was checked one week after the injection.

[9] = 250 mg (as a free base)/kg/day, 14 days, 15,000 Hz pure tone
[10] = 250 mg (as a free base)/kg/day, 14 consecutive days
[11] = 120 mg (as a free base)/kg/day, 16 days, 15,000 Hz pure tone after final dose
[12] = guinea pigs, intramuscular, 14 days, 20,000 Hz pure tone after final dose

NC[C@H]1O[C@H](O[C@H]2[C@H](O)[C@@H](O[C@H]3O[C@H](CO)[C@@H](O)[C@H](N)[C@H]3O)[C@H](N)C[C@@H]2N)[C@H](N)[C@@H](O)[C@@H]1O [Glucarolactam salt of bekanamycin, Salt of bekanamycin and D-glucaro-1,5-lactam]
Pinna Reflex Dull (Male Hartley guinea pigs [1]; [9]): 3/6
Pinna Reflex Lost (Male Hartley guinea pigs [1]; [9]): 3/6
Number died/ Number tested (Male Hartley guinea pigs [1]; [10]): 0/6
solubility in ethanol, acetone, ethyl acetate and chloroform [2]: very slightly soluble
solubility in water [2]: freely soluble

NCC1OC(OC2C(N)CC(N)C(OC3OC(CO)C(O)C(N)C3O)C2O)C(N)CC1O (stereo not shown) [Tobramycin sulfate, tobramycin sulfate]
Pinna Reflex Dull (Male Hartley guinea pigs [1]; [11]): 2/9
Pinna Reflex Normal (Male Hartley guinea pigs [1]; [11]): 7/9
Number died/ Number tested (Male Hartley guinea pigs [1]; 120 mg (as a free base)/kg/day, 16 consecutive days): 0/9

gentamicin sulfate [reference compound]
CRE (Male Hartley guinea pigs [3]; 14 days): 1.80±0.57
Number died/ Number tested (Male Hartley guinea pigs [3]; guinea pigs, intramuscular): 7/9
Pinna Reflex Dull (Male Hartley guinea pigs [3]; [12]): 2/5
Pinna Reflex Lost (Male Hartley guinea pigs [3]; [12]): 3/5
BUN (Male Hartley guinea pigs [3]; 14 days): 92.3 ± 50.42 mg/dL

NC[C@H]1O[C@H](O[C@H]2[C@H](O)[C@@H](O[C@H]3O[C@H](CO)[C@@H](O)[C@H](N)[C@H]3O)[C@H](N)C[C@@H]2N)[C@H](N)[C@@H](O)[C@@H]1O [Bcanamycin sulfate, bekanamycin sulfate]
Pinna Reflex Dull (Male Hartley guinea pigs [1]; [9]): 1/4
Pinna Reflex Lost (Male Hartley guinea pigs [1]; [9]): 3/4*
Number died/ Number tested (Male Hartley guinea pigs [1]; [10]): 2/6

Salt of gentamicin and D-glucaro-1,5-lactam [Glucarolactam salt of gentamicin]
CRE (Male Hartley guinea pigs [3]; 14 days): 1.20±0.51
Number died/ Number tested (Male Hartley guinea pigs [3]; guinea pigs, intramuscular): 2/9
Pinna Reflex Lost (Male Hartley guinea pigs [3]; [12]): 1/7
Pinna Reflex Normal (Male Hartley guinea pigs [3]; [12]): 6/7
BUN (Male Hartley guinea pigs [3]; 14 days): 64.6 ± 43.97 mg/dL
Pinna Reflex Dull (Male Hartley guinea pigs [4]): 2/6
Pinna Reflex Normal (Male Hartley guinea pigs [4]): 3/6
Pinna Reflex Lost (Male Hartley guinea pigs [4]; * including one guinea pig dead on the 21th day): 1/6
solubility in ethanol, acetone, ethyl acetate and chloroform [2]: very slightly soluble
solubility in methanol [2]: sparingly soluble
solubility in water [2]: freely soluble
pH of an aqueous solution of the salt [5]: 6.7

NC[C@H]1O[C@H](O[C@H]2[C@H](O)[C@@H](O[C@H]3O[C@H](CO)[C@@H](O)[C@H](N)[C@H]3O)[C@H](N)C[C@@H]2N)[C@H](O)[C@@H](O)[C@@H]1O [Glucarolactam salt of kanamycin, Salt of kanamycin A and D-glucaro-1,5-lactam]
Number died/ Number tested (Male Hartley guinea pigs [6]): 0/6
solubility in ethanol, acetone, ethyl acetate and chloroform [2]: very slightly soluble
solubility in water [2]: freely soluble

NCC1CCC(N)C(OC2C(N)CC(N)C(OC3OC(CO)C(O)C(N)C3O)C2O)O1 (stereo not shown) [Dibekacin sulfate, dibekacin sulfate, reference compound]
Number of guinea pigs which lost pinna reflex 10days (Male Hartley guinea pigs [7]): 0/6
Number of guinea pigs which lost pinna reflex 14days (Male Hartley guinea pigs [7]): 3/6
Number of guinea pigs which lost pinna reflex 17days (Male Hartley guinea pigs [7]): 3/6
Number of guinea pigs which lost pinna reflex 21days (Male Hartley guinea pigs [7]): 5/6*
Number died/ Number tested (Male Hartley guinea pigs [7]): 1/6
BUN (Male Hartley guinea pigs [7]): 41.8 ± 26.9 mg/dL
Percentage Survival (%) Dosage 0.0625 mg [8]: 0%
Percentage Survival (%) Dosage 0.25 mg [8]: 30%
Percentage Survival (%) Dosage 1 mg [8]: 100%
ED50 [8]: 15.7 mg/kg

NC[C@H]1O[C@H](O[C@H]2[C@H](O)[C@@H](O[C@H]3O[C@H](CO)[C@@H](O)[C@H](N)[C@H]3O)[C@H](N)C[C@@H]2N)[C@H](O)[C@@H](O)[C@@H]1O [Kanamycin sulfate, kanamycin A sulfate, reference compound]
Number died/ Number tested (Male Hartley guinea pigs [6]): 0/6

NC[C@@H]1CC[C@@H](N)[C@@H](O[C@H]2[C@H](O)[C@@H](O[C@H]3O[C@H](CO)[C@@H](O)[C@H](N)[C@H]3O)[C@H](N)C[C@@H]2N)O1 [Glucarolactam salt of dibekacin, Salt of dibekacin and D-glucaro-1,5-lactam]
Number of guinea pigs which lost pinna reflex 10days (Male Hartley guinea pigs [7]): 0/6
Number of guinea pigs which lost pinna reflex 14days (Male Hartley guinea pigs [7]): 0/6
Number of guinea pigs which lost pinna reflex 17days (Male Hartley guinea pigs [7]): 0/6
Number of guinea pigs which lost pinna reflex 21days (Male Hartley guinea pigs [7]): 3/6
Number died/ Number tested (Male Hartley guinea pigs [7]): 0/6
BUN (Male Hartley guinea pigs [7]): 35.7 ± 13.3 mg/dL
Percentage Survival (%) Dosage 0.0625 mg [8]: 0%
Percentage Survival (%) Dosage 0.25 mg [8]: 20%
Percentage Survival (%) Dosage 1 mg [8]: 100%
ED50 [8]: 19.1 mg/kg
solubility in ethanol, acetone, ethyl acetate and chloroform [2]: very slightly soluble
solubility in methanol [2]: sparingly soluble
solubility in water [2]: freely soluble
